Data taken from paper PMC6986443, “T‐495, a novel low cooperative M1 receptor positive allosteric modulator, improves memory deficits associated with cholinergic dysfunction and is characterized by low gastrointestinal side effect risk” (Pharmacology Research & Perspectives, 2020).
Read-outs that look alike come from different tables or passages of the source.

Tests used:
[1] = tested on: IP1 production in the hippocampus, prefrontal cortex, striatum, and brainstem; test: In vivo IP1 assay, wild‐type and M1R KO mice; set-up: species or system mouse
Experimental: (§1) Eight‐week‐old Long‐Evans rats, 8‐ to 9‐week‐old C57BL/6J mice, and 22‐ or 29‐week‐old M1R KO mice and their WT littermates were used in this study. On the day of the experiment, animals were placed in individual cages and acclimated for more than 1 hour. A test compound or vehicle was administered 2 hours before the animals were sacrificed. […] LiCl (10 mmol/kg, s.c.) was injected 1 hour before sacrifice. In the repeated administration study, a test compound was administered to mice once daily for 13 days; on day 14, animals were treated with a test compound and LiCl (10 mmol/kg, s.c.) and then sacrificed. Animals were killed by decapitation, and blood was collected into tubes containing ethylenediaminetetraacetic acid for pharmacokinetic analysis; brains were quickly dissected, frozen on dry ice, and stored at −80°C until analysis. Brain tissues were homogenized in 19 (for rat tissues) or 39 (for mouse tissue) volumes of homogenization buffer (10 mmol/L HEPES pH 7.4, 50 mmol/L LiCl, 150 mmol/L NaCl, and 1% Triton X‐100), and the homogenate was incubated on a rotator for 1 hour, followed by centrifugation. The supernatant was diluted with 39 (for rat tissues) or 19 (for mouse tissues) volumes of dilution buffer (10 mmol/L HEPES pH 7.4, 50 mmol/L LiCl, and 150 mmol/L NaCl). IP1 and protein concentrations in the diluted supernatant were measured using IP‐One HTRF assay kit (Cisbio Bioassays) and BCA Protein Assay Kit (Thermo Fisher Scientific Inc), respectively, according to the manufacturers’ instructions. IP1 production was expressed as the ratio of IP1 to protein concentrations.

[2] = Concentrations in rat plasma and brain (IP1 study); type: in vivo; details: Long-Evans, po, mean ± SD; for Kp at 2 h: brain/plasma, read-out: Kp (brain‐to‐plasma concentration ratio)
Experimental: as §1

[3] = tested on: rats pretreated with scopolamine; test: Novel object recognition (NOR) test, scopolamine‐induced memory impairment; type: in vivo, rat; details: for scopolamine‐induced NDI reduction, retention trial: scopolamine 0.1 mg/kg s.c.
Experimental: On Day 1, 7‐week‐old Long‐Evans rats were individually placed into the test box fabricated from polyvinyl chloride (40‐cm square with 50‐cm high walls) without any objects for 10 minutes. […] In the acquisition trial, each rat was placed in the test box containing two identical objects and allowed to explore them for 3 minutes. After an intertrial interval of 4 hours, each rat was again placed in the same test box containing one familiar and one novel objects and allowed to explore both for 3 minutes (retention trial). The behavior of each animal during the acquisition and retention trials was recorded on video, and the time spent exploring each object (licking, sniffing, or touching the object with the forepaws) was scored manually. Results were presented as novelty discrimination index (NDI) calculated as follows: the exploration time for the novel object/the exploration time for both objects × 100.

human M1R = target: T1, human M1R (Homo sapiens, UniProt P11229); test: [3H]‐pirenzepine binding assay (cooperativity, allosteric ternary complex model); set-up: expressed in transfected cells; details: between PAM and ACh; for Cooperativity Log α: 95% confidence intervals in parentheses
T1 sequence (P11229 1-460): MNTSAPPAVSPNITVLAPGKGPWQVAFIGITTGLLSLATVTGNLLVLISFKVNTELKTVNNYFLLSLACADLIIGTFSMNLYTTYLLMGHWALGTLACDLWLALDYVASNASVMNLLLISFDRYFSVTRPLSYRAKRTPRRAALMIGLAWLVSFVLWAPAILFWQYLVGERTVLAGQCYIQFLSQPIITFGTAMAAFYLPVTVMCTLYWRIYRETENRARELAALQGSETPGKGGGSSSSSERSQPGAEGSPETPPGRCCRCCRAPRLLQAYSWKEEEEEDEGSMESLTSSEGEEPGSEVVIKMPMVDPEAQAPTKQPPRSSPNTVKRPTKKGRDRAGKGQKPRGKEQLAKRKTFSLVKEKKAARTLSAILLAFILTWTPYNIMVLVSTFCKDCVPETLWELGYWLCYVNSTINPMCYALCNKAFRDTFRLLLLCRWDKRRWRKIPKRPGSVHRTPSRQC
Experimental: Cell membranes from FreeStyle 293 cells transiently expressing human M1R were incubated with T‐495 or MK‐7622 (0.1‐30 μmol/L), ACh (0.003‐3000 μmol/L), and 4 nmol/L [^3H]‐pirenzepine (PerkinElmer) in assay buffer (20 mmol/L HEPES, 100 mmol/L NaCl, 10 mmol/L MgCl2, and 0.1% fatty acid free BSA) for 2 hours at room temperature. The binding was terminated by filtration through GF/C filter plates (PerkinElmer) using a cell harvester (PerkinElmer) and five washed with 300 μL of 50 mmol/L Tris‐HCl. The GF/C plates were dried at 42°C; then, 25 μL of microscint 0 (PerkinElmer) was added. Radioactivity was counted using Topcount (PerkinElmer). Nonspecific binding was defined in the presence of 10 μmol/L atropine. To calculate the cooperativity of a PAM, the [^3H]‐pirenzepine binding assay data were fitted to the allosteric ternary complex model,35 using GraphPad Prism 5 software: Y=C/KC+αBC[B][C]/KBKC/1+A/KA+B/KB+C/KC+αAB[A][B]/KAKB+αBC[B][C]/KBKC
where Y is the fractional specific [^3H]‐pirenzepine binding; [A], [B], and [C] are the concentrations of ACh, a PAM, and [^3H]‐pirenzepine, respectively; K A, K B, and K C are the equilibrium dissociation constants of ACh, a PAM, and [^3H]‐pirenzepine, respectively; and αAB and αBC are the cooperativities between a PAM and ACh or [^3H]‐pirenzepine, respectively.

[4] = brain (hippocampus), rat hippocampus, 3 mg/kg p.o., read-out: Brain concentration
[5] = brain (hippocampus), rat hippocampus, 10 mg/kg p.o., read-out: Brain concentration
[6] = plasma, rat, 3 mg/kg p.o., n = 6, read-out: Plasma concentration
[7] = plasma, rat, 10 mg/kg p.o., n = 6, read-out: Plasma concentration

Row | Structure (SMILES) | concentration at 2 h [2, 4] [ng/g] | concentration at 2 h [2, 5] [ng/g] | Kp at 2 h ([2]; rat, 3 mg/kg p.o.) | Kp at 2 h ([2]; rat, 10 mg/kg p.o.) | concentration at 2 h [2, 6] [ng/mL] | concentration at 2 h [2, 7] [ng/mL] | scopolamine‐induced NDI reduction, retention trial ([3]; 1 mg/kg p.o.) | scopolamine‐induced NDI reduction, retention trial ([3]; 3 mg/kg p.o.) | Cooperativity α (human M1R) | Cooperativity Log α (human M1R) | further results
1 | Cc1c(Cc2ccc(Cl)nc2)cc2c(c1Cl)OCN([C@H]1CCC[C@@H]1O)C2=O [T‐495, 8‐chloro‐6‐((6‐chloropyridin‐3‐yl)methyl)‐3‐((1S,2S)‐2‐hydroxycyclopentyl)‐7‐methyl‐2,3‐dihydro‐4H‐1,3‐benzoxazin‐4‐one] | 66.2 ± 18.5 | 304 ± 82.8 | 1.4 ± 0.1 | 1 ± 0.1 | 49.6 ± 14.5 | 298 ± 75.2 | significantly reversed | significantly reversed | 170 | 2.23 (2.07‐2.40) | IP1 production in hippocampus, prefrontal cortex, and striatum ([1]; M1R KO mice, 10 mg/kg p.o.): did not cause a significant increase; IP1 production in hippocampus, prefrontal cortex, and striatum ([1]; wild‐type mice, 10 mg/kg p.o.): significantly increased; concentration at 2 h ([2]; brain (hippocampus), rat hippocampus, 30 mg/kg p.o., read-out: Brain concentration): 1000 ± 330 ng/g; Kp at 2 h ([2]; rat, 30 mg/kg p.o.): 1 ± 0.1; concentration at 2 h ([2]; plasma, rat, 30 mg/kg p.o., n = 6, read-out: Plasma concentration): 1050 ± 358 ng/mL; scopolamine‐induced NDI reduction, retention trial ([3]; 0.3 mg/kg p.o.): subeffective; scopolamine‐induced NDI reduction, combination with donepezil ([3]; T‐495 0.3 mg/kg + donepezil 0.1 mg/kg p.o.): significantly improved
2 | Cc1ccc(Cc2cc3c(=O)n([C@H]4CCCC[C@@H]4O)cnc3c3ccccc23)cn1 [MK‐7622, 3‐((1S,2S)‐2‐hydroxycyclohexyl)‐6‐((6‐methylpyridin‐3‐yl)methyl)benzo[h]quinazolin‐4(3H)‐one, reference compound] | 39.3 ± 5.6 | 220 ± 72.2 | 0.19 ± 0.04 | 0.23 ± 0.02 | 218 ± 42.9 | 944 ± 246 | subeffective | significantly reversed | 511 | 2.71 (2.48‐2.94) | IP1 production in the brainstem ([1]; M1R KO mice (and wild‐type), 20 mg/kg p.o.): slight reduction; IP1 production in hippocampus, prefrontal cortex, and striatum ([1]; M1R KO mice, 20 mg/kg p.o.): did not cause a significant increase; IP1 production in the brainstem ([1]; wild‐type mice, 20 mg/kg p.o.): slightly reduced; IP1 production in the forebrain ([1]; wild‐type mice, 20 mg/kg p.o.): increased; concentration at 2 h ([2]; brain (hippocampus), rat hippocampus, 1 mg/kg p.o., read-out: Brain concentration): 14.5 ± 6.3 ng/g; Kp at 2 h ([2]; rat, 1 mg/kg p.o.): 0.14 ± 0.04; concentration at 2 h ([2]; plasma, rat, 1 mg/kg p.o., n = 6, read-out: Plasma concentration): 99.2 ng/mL; scopolamine‐induced NDI reduction, retention trial ([3]; 10 mg/kg p.o.): significantly reversed; scopolamine‐induced NDI reduction, combination with donepezil ([3]; MK‐7622 1 mg/kg + donepezil 0.1 mg/kg p.o.): could not reverse
